EC50 and IC50 data for 3 molecules are collected here from ChEMBL document CHEMBL1201862, “PubChem BioAssay data set” (2004).

A short description of assay [1]: Luminescence Cell-Based Dose Confirmation HTS to Identify Inhibitors of Platelet Dense Granule Release. [Related pubchem assays: 1663 (Primary HTS), 1678 (Summary of Project)]. The format is functional.
Assay [2] deals with Luciferin 4-monooxygenase (Photinus pyralis, UniProt P08659). Nature of the assay: inhibition of purified Photinus pyralis luciferase – biochemical, luminescence, dose response (AID 1891).
The nature of assay [3]: Fluorescence Cell-Based Dose Response to Identify Inhibitors of Thrombin Receptor-Activating Peptide SFLLRN-Mediated P-Selectin Induction on Platelets. [Related pubchem assays: 1663 (Primary HTS), 1889 (retest at dose ), 1891 (counterscreen), 1678 (Project Summary)]. The format is functional. (Counterscreens check selectivity or assay interference.)
The nature of assay [4]: Counterscreen for antagonists of the orexin 1 receptor (OX1R; HCRTR1): Fluorescence-based cell-based high throughput dose response assay to identify antagonists of the parental CHO cell line. [Related pubchem assays (depositor defined):AID434989, AID435008, AID463079, AID485270, AID492963, AID492964, AID492965, AID493232, AID504699, AID504701]. The format is functional.
Assay [5] concerns the target T1, Orexin/Hypocretin receptor type 1 (Homo sapiens, UniProt O43613).
T1 sequence (O43613 whole entry): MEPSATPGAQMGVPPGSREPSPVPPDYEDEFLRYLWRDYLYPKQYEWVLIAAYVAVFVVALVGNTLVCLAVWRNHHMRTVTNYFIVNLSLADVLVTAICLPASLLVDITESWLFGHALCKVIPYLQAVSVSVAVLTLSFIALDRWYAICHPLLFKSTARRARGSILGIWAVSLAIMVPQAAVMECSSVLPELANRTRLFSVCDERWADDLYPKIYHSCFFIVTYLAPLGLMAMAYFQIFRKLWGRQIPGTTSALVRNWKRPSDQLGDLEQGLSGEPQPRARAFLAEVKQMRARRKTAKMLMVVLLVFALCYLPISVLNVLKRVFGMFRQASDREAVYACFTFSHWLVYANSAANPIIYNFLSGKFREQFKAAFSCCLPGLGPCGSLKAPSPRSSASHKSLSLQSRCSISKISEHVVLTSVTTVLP
Nature of the assay: Homogeneous Time Resolved Fluorescence (HTRF)-based cell-based high throughput dose response assay for antagonists of the orexin 1 receptor (OX1R; HCRTR1). [Related pubchem assays (depositor defined):AID434989, AID435008, AID463079, AID485270, AID492963, AID492964, AID492965, AID493232, AID504717, AID504718]. The format is functional. In general terms: TR-FRET usually uses a lanthanide donor and a delayed reading to cut background.

Assay [6] deals with Ubiquitin carboxyl-terminal hydrolase BAP1 (Homo sapiens, UniProt Q92560). Nature of the assay: inhibition of BAP1 ubiquitin hydrolase activity – biochemical, dose response (AID 714). The class given is functional.
Assay [7] deals with T2, Orexin receptor type 2 (Homo sapiens, UniProt O43614).
T2 sequence (O43614 whole entry): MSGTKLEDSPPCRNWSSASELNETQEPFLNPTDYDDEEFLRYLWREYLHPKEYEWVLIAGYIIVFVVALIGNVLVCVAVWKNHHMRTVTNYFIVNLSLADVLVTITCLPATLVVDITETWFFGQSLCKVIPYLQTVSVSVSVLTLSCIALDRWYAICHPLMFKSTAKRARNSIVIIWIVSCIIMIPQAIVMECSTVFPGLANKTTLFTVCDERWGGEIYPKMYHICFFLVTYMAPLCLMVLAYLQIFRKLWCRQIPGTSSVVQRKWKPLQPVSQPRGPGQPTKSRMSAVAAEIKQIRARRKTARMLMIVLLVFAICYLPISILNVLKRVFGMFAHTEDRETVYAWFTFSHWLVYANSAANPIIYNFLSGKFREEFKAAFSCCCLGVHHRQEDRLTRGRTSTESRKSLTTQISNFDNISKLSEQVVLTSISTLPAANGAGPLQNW
Put plainly: Counterscreen assay for antagonists of the orexin 1 receptor (OX1R; HCRTR1): Fluorescence-based cell-based dose response assay for antagonists of the orexin 2 receptor (OX2R; HCRTR2), run by assay provider. The format is functional.

In assay [8] the test system is CHO-K1. Put plainly: Counterscreen for antagonists of the orexin 1 receptor (OX1R; HCRTR1): Homogeneous time resolved fluorescence (HTRF)-based cell-based dose response assay to identify antagonists of the parental CHO-K1 cell line. [Related pubchem assays (depositor defined):AID434989, AID435008, AID463079, AID485270, AID492963, AID492964, AID492965, AID493232, AID504699, AID504701]. The class given is functional. The following applies: Cricetulus griseus.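 Also: potency for inhibition of ATP-stimulated IP1 production as antagonists.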

Assay [9] concerns the target DNA dC->dU-editing enzyme APOBEC-3G (Homo sapiens, UniProt Q9HC16). Nature of the assay: Dose Response confirmation of small molecule APOBEC3G DNA Deaminase Inhibitors via a fluorescence-based single-stranded DNA deaminase assay. [Related pubchem assays (depositor defined):AID493012, AID493028]. The format is functional.
In assay [10] the target is T2, Orexin receptor type 2. Put plainly: Counterscreen assay for antagonists of the orexin 1 receptor (OX1R; HCRTR1): Homogeneous Time Resolved Fluorescence (HTRF)-based cell-based dose response assay for antagonists of the orexin 2 receptor (OX2R; HCRTR2), run by assay provider. The format is functional.
Assay [11] deals with T1, Orexin/Hypocretin receptor type 1. Put plainly: Fluorescence-based cell-based high throughput dose response assay for antagonists of the orexin 1 receptor (OX1R; HCRTR1). [Related pubchem assays (depositor defined):AID434989, AID435008, AID463079, AID485270, AID492963, AID492964, AID492965, AID493232, AID504717, AID504718]. The class given is functional.
Assay [12] is described as follows: Luminescent dose response cell-based high throughput screening assay for inhibitors of the Janus kinase 2 mutant JAK2V617F. [Related pubchem assays: 1446 (Primary screen.), 1521 (Confirmation assay.), 1486 (Counter screen.)]. The format is functional.

Active and inactive are the calls of the source. Some results are limits rather than exact numbers.

Ubiquitin carboxyl-terminal hydrolase BAP1, sequence (Q92560 whole entry): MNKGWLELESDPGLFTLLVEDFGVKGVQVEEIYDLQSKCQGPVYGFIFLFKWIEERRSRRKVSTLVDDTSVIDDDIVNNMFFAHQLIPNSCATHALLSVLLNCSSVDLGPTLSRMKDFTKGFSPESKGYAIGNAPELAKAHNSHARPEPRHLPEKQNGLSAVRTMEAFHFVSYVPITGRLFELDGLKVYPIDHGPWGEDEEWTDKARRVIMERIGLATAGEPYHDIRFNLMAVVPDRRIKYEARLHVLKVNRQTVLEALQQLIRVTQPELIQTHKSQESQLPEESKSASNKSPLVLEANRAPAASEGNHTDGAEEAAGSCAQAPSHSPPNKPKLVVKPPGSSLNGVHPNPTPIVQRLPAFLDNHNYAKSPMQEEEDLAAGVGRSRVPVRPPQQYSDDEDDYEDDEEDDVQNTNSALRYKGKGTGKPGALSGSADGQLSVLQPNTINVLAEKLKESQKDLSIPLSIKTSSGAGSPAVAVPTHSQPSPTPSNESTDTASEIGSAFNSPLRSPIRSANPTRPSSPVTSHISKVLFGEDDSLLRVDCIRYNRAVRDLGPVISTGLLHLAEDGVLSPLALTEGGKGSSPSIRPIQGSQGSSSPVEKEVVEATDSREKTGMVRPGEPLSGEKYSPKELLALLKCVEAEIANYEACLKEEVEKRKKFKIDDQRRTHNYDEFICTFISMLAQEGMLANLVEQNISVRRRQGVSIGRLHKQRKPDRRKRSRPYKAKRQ
Luciferin 4-monooxygenase, sequence (P08659 whole entry): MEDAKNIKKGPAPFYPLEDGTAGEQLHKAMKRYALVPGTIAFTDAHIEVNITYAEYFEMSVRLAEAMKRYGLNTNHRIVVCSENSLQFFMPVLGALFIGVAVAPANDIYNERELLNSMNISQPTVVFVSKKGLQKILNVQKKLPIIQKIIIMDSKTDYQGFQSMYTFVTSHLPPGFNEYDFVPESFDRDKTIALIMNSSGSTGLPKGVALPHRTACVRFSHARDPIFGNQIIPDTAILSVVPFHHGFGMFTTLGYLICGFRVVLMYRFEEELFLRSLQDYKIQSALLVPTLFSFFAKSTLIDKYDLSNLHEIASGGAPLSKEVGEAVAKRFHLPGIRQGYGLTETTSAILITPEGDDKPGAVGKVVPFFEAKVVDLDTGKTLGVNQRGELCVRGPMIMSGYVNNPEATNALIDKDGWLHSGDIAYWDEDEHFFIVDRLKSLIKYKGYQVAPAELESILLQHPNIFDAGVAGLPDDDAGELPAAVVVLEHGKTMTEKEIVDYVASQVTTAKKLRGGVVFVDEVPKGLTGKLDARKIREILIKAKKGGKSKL
DNA dC->dU-editing enzyme APOBEC-3G, sequence (Q9HC16 whole entry): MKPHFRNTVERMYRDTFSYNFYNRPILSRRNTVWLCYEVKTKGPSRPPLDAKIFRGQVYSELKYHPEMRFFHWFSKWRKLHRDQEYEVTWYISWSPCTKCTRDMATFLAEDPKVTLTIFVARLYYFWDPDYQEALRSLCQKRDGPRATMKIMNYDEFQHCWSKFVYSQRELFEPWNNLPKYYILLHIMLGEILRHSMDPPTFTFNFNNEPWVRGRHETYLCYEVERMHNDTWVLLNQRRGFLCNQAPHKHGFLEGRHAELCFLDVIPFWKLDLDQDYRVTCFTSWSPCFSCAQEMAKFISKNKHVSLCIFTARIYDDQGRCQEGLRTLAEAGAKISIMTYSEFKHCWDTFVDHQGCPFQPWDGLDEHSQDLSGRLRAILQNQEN

Turning to `COc1cc2c(cc1OC)-c1cc(N3CCc4ccccc43)nc(=O)n1CC2`, the EC50 was 6.83 µM (active) in assay [1], > 112 µM (not active) in assay [2] and < 0.3 µM (active) in [3].
On to `COC(=O)c1ccccc1NC(=O)c1sc(=S)n(C)c1N`, for which the IC50 in assay [4] was > 49.8 µM (inactive); in assay [5] it was 0.407 µM (active); in assay [6] it was > 50 µM (not active); in assay [7], 1.4 µM (active); in [8], > 66.2 µM (inactive); in [9], 67.7 µM (active). In addition, the IC50 in [10] was > 50 µM (inactive); in assay [11] it was 1.41 µM (active).
For the molecule `CC(C)(C)OC(=O)N[C@@H](Cc1ccccc1)c1nnc(S(=O)(=O)Cc2cccc(F)c2)o1`, in [12], the IC50 was 0.788 µM (active).

As usually defined, the EC50 is the concentration giving half of the maximal effect. A word on the IC50: it is the concentration that gives 50% inhibition.
